Measurements as given in ChEMBL document CHEMBL1806400, “New isoprenylated flavonoids and adipogenesis-promoting constituents from Morus notabilis” (2011).
Activity calls are given as the source filed them. No cut-off for these calls is given here.

What was measured:
3T3-L1 [1] = test: Induction of adipogenesis in mouse 3T3L1 cells assessed as increase in triglyceride content after 8 days by Oil red O staining relative to control; format: functional, cell-based
3T3-L1 [2] = test: Induction of adipogenesis in mouse 3T3L1 cells assessed as increase in triglyceride content at 7.5 uM after 8 days by Oil red O staining relative to control; format: functional
3T3-L1 [3] = test: Induction of adipogenesis in mouse 3T3L1 cells assessed as increase in triglyceride content at 15 uM after 8 days by Oil red O staining relative to control; format: functional
3T3-L1 [4] = test: Upregulation of aP2 gene expression in mouse 3T3L1 cells by RT-PCR analysis; format: functional, cell-based
3T3-L1 [5] = test: Upregulation of aP2 protein expression in mouse 3T3L1 cells by Western blot analysis; format: functional, cell-based
3T3-L1 [6] = test: Upregulation of GLUT4 gene expression in mouse 3T3L1 cells by RT-PCR analysis; format: functional, cell-based
3T3-L1 [7] = test: Upregulation of GLUT4 protein expression in mouse 3T3L1 cells by Western blot analysis; format: functional, cell-based
3T3-L1 [8] = test: Induction of adipogenesis in mouse 3T3L1 cells assessed as increase in triglyceride content at 5 uM after 8 days by Oil red O staining relative to control; format: functional
3T3-L1 [9] = test: Induction of adipogenesis in mouse 3T3L1 cells assessed as increase in triglyceride content at 10 uM after 8 days by Oil red O staining relative to control; format: functional
3T3-L1 [10] = test: Induction of adipogenesis in mouse 3T3L1 cells assessed as increase in triglyceride content at 1 uM after 8 days by Oil red O staining relative to control; format: functional

Q: For `CC(C)=CCc1c(O)ccc(C(=O)[C@H]2[C@@H](c3c(O)ccc(C(=O)/C=C/c4ccc(O)cc4O)c3O)C=C(C)C[C@@H]2c2ccc(O)cc2O)c1O`, which Activity (3T3-L1 [1]) is on record?
A: inactive

Q: Which results are given for `CC(C)=CCC/C(C)=C/Cc1c(-c2oc3c(CC=C(C)C)c(O)cc(O)c3c(=O)c2O)ccc(O)c1O` [NOTABILISIN C]?
A: Activity (3T3-L1 [2]): 312.24%; Activity (3T3-L1 [3]): 948.51%; Activity (3T3-L1 [4]): Active; Activity (3T3-L1 [5]): Active; Activity (3T3-L1 [6]): Active; Activity (3T3-L1 [7]): Active

Q: Which Activity (3T3-L1 [8]) does the source give for `COc1c(-c2ccc(O)c(O)c2C/C=C(\C)CCC=C(C)C)oc2cc(O)cc(O)c2c1=O` [NOTABILISIN A] here?
A: 305.32%

Q: And the Activity (3T3-L1 [9])?
A: 513.55%

Q: And the Activity (3T3-L1 [4])?
A: Active

Q: And the Activity (3T3-L1 [5])?
A: Active

Q: And the Activity (3T3-L1 [6])?
A: Active

Q: And the Activity (3T3-L1 [7])?
A: Active

Q: Which Activity (3T3-L1 [2]) does the source give for `CC(C)=CCc1c(O)ccc(C(=O)[C@H]2[C@@H](c3c(O)cc(-c4cc5ccc(O)cc5o4)cc3O)C=C(C)C[C@@H]2c2ccc(O)cc2O)c1O` [CHALCOMORACIN] here?
A: 109.99%

Q: What about the Activity (3T3-L1 [3]) of the same compound?
A: 125.36%

Q: What about the Activity (3T3-L1 [4]) of the same compound?
A: inactive

Q: What about the Activity (3T3-L1 [5]) of the same compound?
A: Active

Q: What about the Activity (3T3-L1 [6]) of the same compound?
A: inactive

Q: What about the Activity (3T3-L1 [7]) of the same compound?
A: inactive

Q: How did the Activity (3T3-L1 [10]) turn out when `CN(CCOc1ccc(CC2SC(=O)NC2=O)cc1)c1ccccn1` (stereo not given) [ROSIGLITAZONE] was run?
A: 984.24%
